What was measured:
Assay type in all cases: in vivo
weeds = test: Activity assay of compositions: soil sealing treatment (S), fresh weight inhibition and combined effect (Gowing method); conditions: Silene conoidea, 21 d
Procedure, shortened: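 Pre-emergence soil treatment: pre-germinated seeds sown 72 h earlier, sprayed at 450 kg/ha spray volume, 0.3 MPa; compounds in acetone diluted with 0.1% Tween-80. Greenhouse 20-30 °C; fresh weight of surviving weeds measured 21 days after treatment, 4 replicates. Expected mixture inhibition by Gowing formula, E0=X+Y−X*Y/100.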

Leptochloa chinensis = test: Pre-emergence sealing experiment for water-seeding; set-up: key: 9: completely dead; 8: growth control rate is greater than or equal to 90% and less than 100%; 7: growth control rate is greater than or equal to 80% and less than 90%; 6: growth control rate is greater than or equal to 70% and less than 80%; growth control rate is greater than or equal to 50% and less than 70%; 4: growth control rate is greater than or equal to 30% and less than 50%; growth control rate is greater than or equal to 20% and less than 30%; growth control rate is greater than or equal to 10% and less than 20%; growth control rate is less than 10%; 0: no effect; conditions: 15 days
Excerpt: (§1) The activity level criteria for plant damage (i.e., growth control rate) are as follows: • Level 9: completely dead; • Level 8: growth control rate is greater than or equal to 90% and less than 100%; • Level 7: growth control rate is greater than or equal to 80% and less than 90%; • Level 6: growth control rate is greater than or equal to 70% and less than 80%; • Level 5: growth control rate is greater than or equal to 50% and less than 70%; • Level 4: growth control rate is greater than or equal to 30% and less than 50%; • Level 3: growth control rate is greater than or equal to 20% and less than 30%; • Level 2: growth control rate is greater than or equal to 10% and less than 20%; • Level 1: growth control rate is less than 10%; • Level 0: no effect.
(§2) The seeds of Leptochloa chinensis, Digitaria sanguinalis, Monochoria vaginalis (sulfonylurea-resistant strain, collected from Hunan, China), Cyperus iria (sulfonylurea-resistant strain, collected from Jiangsu, China), Huaidao (rice cultivar), etc. were broadcasted on the surface of nutrition bowls filled with soil and fully covered by soil. The prepared nutrition bowls were then placed in a cultivation box, with water filled to a suitable height to keep the soil in the nutrition bowls moist. The test compounds of the present invention were individually dissolved with mixed solutions of acetone and Tween-80, then diluted into solution of a certain concentration using a certain amount of water and sprayed using a spray tower. The plants were placed on a greenhouse seedbed and cultured for 15 days, and the experimental results were then collected. The compounds were applied at 120, 60, 30 and 15 g a.i./ha in triplicate and the results were averaged. The effects were evaluated according to the above activity level criteria.

Cyperus iria = test: Pre-emergence sealing experiment for water-seeding; set-up: key: 9: completely dead; 8: growth control rate is greater than or equal to 90% and less than 100%; 7: growth control rate is greater than or equal to 80% and less than 90%; 6: growth control rate is greater than or equal to 70% and less than 80%; growth control rate is greater than or equal to 50% and less than 70%; 4: growth control rate is greater than or equal to 30% and less than 50%; growth control rate is greater than or equal to 20% and less than 30%; growth control rate is greater than or equal to 10% and less than 20%; growth control rate is less than 10%; 0: no effect; conditions: 15 days, sulfonylurea-resistant strain
Excerpt: as §1, §2

Digitaria sanguinalis = test: Pre-emergence sealing experiment for water-seeding; set-up: key: 9: completely dead; 8: growth control rate is greater than or equal to 90% and less than 100%; 7: growth control rate is greater than or equal to 80% and less than 90%; 6: growth control rate is greater than or equal to 70% and less than 80%; growth control rate is greater than or equal to 50% and less than 70%; 4: growth control rate is greater than or equal to 30% and less than 50%; growth control rate is greater than or equal to 20% and less than 30%; growth control rate is greater than or equal to 10% and less than 20%; growth control rate is less than 10%; 0: no effect; conditions: 15 days
Excerpt: as §1, §2

Monochoria vaginalis = test: Pre-emergence sealing experiment for water-seeding; set-up: key: 9: completely dead; 8: growth control rate is greater than or equal to 90% and less than 100%; 7: growth control rate is greater than or equal to 80% and less than 90%; 6: growth control rate is greater than or equal to 70% and less than 80%; growth control rate is greater than or equal to 50% and less than 70%; 4: growth control rate is greater than or equal to 30% and less than 50%; growth control rate is greater than or equal to 20% and less than 30%; growth control rate is greater than or equal to 10% and less than 20%; growth control rate is less than 10%; 0: no effect; conditions: 15 days, sulfonylurea-resistant strain
Excerpt: as §1, §2

major crops = test: Pre-emergence test experiment (crops); set-up: key: 9: completely dead; 8: growth control rate is greater than or equal to 90% and less than 100%; 7: growth control rate is greater than or equal to 80% and less than 90%; 6: growth control rate is greater than or equal to 70% and less than 80%; growth control rate is greater than or equal to 50% and less than 70%; 4: growth control rate is greater than or equal to 30% and less than 50%; growth control rate is greater than or equal to 20% and less than 30%; growth control rate is greater than or equal to 10% and less than 20%; growth control rate is less than 10%; 0: no effect
[1] = tested on: monocotyledonous and dicotyledonous weeds; test: Pre-emergence test experiment (weeds); set-up: key: 9: completely dead; 8: growth control rate is greater than or equal to 90% and less than 100%; 7: growth control rate is greater than or equal to 80% and less than 90%; 6: growth control rate is greater than or equal to 70% and less than 80%; growth control rate is greater than or equal to 50% and less than 70%; 4: growth control rate is greater than or equal to 30% and less than 50%; growth control rate is greater than or equal to 20% and less than 30%; growth control rate is greater than or equal to 10% and less than 20%; growth control rate is less than 10%; 0: no effect
[2] = tested on: Echinochloa crusgalli, Schoenoplectiella juncoides and Bidens tripartita; test: Resistance of collected weed seeds to pyrazosulfuron-ethyl; conditions: conventional doses; seeds collected from Heilongjiang, China

COC(=O)c1ccccc1CS(=O)(=O)NC(=O)Nc1nc(OC)cc(OC)n1 [Bensulfuron-methyl, bensulfuron-methyl, reference compound]
Control effect of B applied alone in a corresponding dose (%) (weeds; B 15 g a.i./ha): 43.7% | Control effect of B applied alone in a corresponding dose (%) (weeds; B 30 g a.i./ha): 60.5% | activity level (growth control rate, fresh weight), Leptochloa chinensis (Leptochloa chinensis; 30 g a.i./ha): 3 (growth control rate is greater than or equal to 20% and less than 30%) | activity level (growth control rate, fresh weight), Cyperus iria (Cyperus iria; 30 g a.i./ha): 5 (growth control rate is greater than or equal to 50% and less than 70%) | activity level (growth control rate, fresh weight), Digitaria sanguinalis (Digitaria sanguinalis; 30 g a.i./ha): 4 (growth control rate is greater than or equal to 30% and less than 50%) | activity level (growth control rate, fresh weight), Monochoria vaginalis (Monochoria vaginalis; 30 g a.i./ha): 2 (growth control rate is greater than or equal to 10% and less than 20%)

CCc1ccc(-n2cnc(C(F)(F)F)n2)nc1Oc1cccc(C(F)(F)F)c1 [Compound 16]
Pre-emergence plant damage level (growth control rate) on Corn (major crops; 15 g a.i./ha): 0 | Pre-emergence plant damage level (growth control rate) on Cotton (major crops; 15 g a.i./ha): 0 | Pre-emergence plant damage level (growth control rate) on Soybean (major crops; 15 g a.i./ha): 0 | activity level (growth control rate, fresh weight), Leptochloa chinensis (Leptochloa chinensis; 15 g a.i./ha): 9 | activity level (growth control rate, fresh weight), Cyperus iria (Cyperus iria; 15 g a.i./ha): 9 | activity level (growth control rate, fresh weight), Digitaria sanguinalis (Digitaria sanguinalis; 15 g a.i./ha): 9 | activity level (growth control rate, fresh weight), Monochoria vaginalis (Monochoria vaginalis; 15 g a.i./ha): 9 | Pre-emergence activity level (growth control rate) on Amaranthus retroflexus ([1]; 15 g a.i./ha): 9 | Pre-emergence activity level (growth control rate) on Descurainia sophia ([1]; 15 g a.i./ha): 9 | Pre-emergence activity level (growth control rate) on Digitaria sanguinalis ([1]; 15 g a.i./ha): 9 | Pre-emergence activity level (growth control rate) on Setaria viridis ([1]; 15 g a.i./ha): 9 | Pre-emergence activity level (growth control rate) on Solanum nigrum ([1]; 15 g a.i./ha): 9 | Pre-emergence activity level (growth control rate) on Veronica ([1]; 15 g a.i./ha): 9

COCc1ccc(-n2cnc(C(F)(F)F)n2)nc1Oc1cccc(C(F)(F)F)c1 [Compound 23]
Pre-emergence plant damage level (growth control rate) on Corn (major crops; 30 g a.i./ha): 0 | Pre-emergence plant damage level (growth control rate) on Cotton (major crops; 30 g a.i./ha): 0 | Pre-emergence plant damage level (growth control rate) on Soybean (major crops; 30 g a.i./ha): 0 | activity level (growth control rate, fresh weight), Leptochloa chinensis (Leptochloa chinensis; 15 g a.i./ha): 9 | activity level (growth control rate, fresh weight), Cyperus iria (Cyperus iria; 15 g a.i./ha): 9 | activity level (growth control rate, fresh weight), Digitaria sanguinalis (Digitaria sanguinalis; 15 g a.i./ha): 9 | activity level (growth control rate, fresh weight), Monochoria vaginalis (Monochoria vaginalis; 15 g a.i./ha): 9 | Pre-emergence activity level (growth control rate) on Amaranthus retroflexus ([1]; 30 g a.i./ha): 9 | Pre-emergence activity level (growth control rate) on Descurainia sophia ([1]; 30 g a.i./ha): 9 | Pre-emergence activity level (growth control rate) on Digitaria sanguinalis ([1]; 30 g a.i./ha): 9 | Pre-emergence activity level (growth control rate) on Setaria viridis ([1]; 30 g a.i./ha): 8 (growth control rate is greater than or equal to 90% and less than 100%) | Pre-emergence activity level (growth control rate) on Solanum nigrum ([1]; 30 g a.i./ha): 9 | Pre-emergence activity level (growth control rate) on Veronica ([1]; 30 g a.i./ha): 9

CCOC(=O)c1cnn(C)c1S(=O)(=O)NC(=O)Nc1nc(OC)cc(OC)n1 [pyrazosulfuron-ethyl, reference compound]
Control effect of B applied alone in a corresponding dose (%) (weeds; B 15 g a.i./ha): 50.4% | Control effect of B applied alone in a corresponding dose (%) (weeds; B 30 g a.i./ha): 65.6% | resistance of collected weed seeds [2]: resistant to conventional doses

— patent publication US20260305610A1, “TRIAZOLE COMPOUND, AND PREPARATION METHOD THEREFOR, HERBICIDAL COMPOSITION AND USE THEREOF” (QINGDAO KINGAGROOT CHEMICAL COMPOUND CO., LTD., priority 2023, published 2026)
